Data as given in US10342795B2, “Substituted 4,5,6,7-tetrahydro-pyrazolo[1,5-a]pyrimidine derivatives and 2,3-dihydro-1H-imidazo[1,2-b]pyrazole derivatives as ROS1 inhibitors” (Janssen Pharmaceutica NV, priority 2014, dated 2019).

Target: T1, Ros1 enzyme (Homo sapiens, UniProt P08922)
T1 construct: 0.5 μg/ml Ros1 enzyme
Experiment: Ros1 enzymatic assay
Assay type: biochemical
Conditions: -log IC50 (M); 20 μM ATP, 120 min at room temperature; read-out: ROS1 pIC50 (converted)
Procedure: Compounds were spotted onto white 384-well Proxiplate plus plates (Perkin Elmer) to which 5 μl of enzyme mix (0.5 μg/ml Ros1 enzyme, 50 mM Tris-HCl pH7.5, 1 mM EGTA, 10 mM MgCl2, 0.01% Tween-20) and 5 μl of substrate mix (6 μg/ml IRS-Tide [American Peptide Company], 20 μM ATP, 13.33 μCi/ml ATP (adenosine 5′-triphosphate) P^33, 50 mM Tris-HCl pH7.5, 1 mM EGTA (ethylene glycol-bis(2-aminoethylether)-N,N,N′,N′-tetraacetic acid), 10 mM MgCl2, 0.01% Tween-20) were added. After incubation for 120 minutes at room temperature, 10 μl of stop reaction buffer (5 mM EDTA, 50 μM ATP, 0.1% BSA (bovine serum albumin), 0.1% Triton X-100, 50 mM Tris-HCl pH7.5, 1 mM EGTA, 10 mM MgCl2, 0.01% Tween-20) containing 2 mg/ml streptavidin coupled polystyrene imaging beads (Amersham Biosciences) was added and incubated for 15 minutes at room temperature. Plates were centrifuged for 3 minutes at 1500 rpm and signals detected in a LEADseeker imaging system (GE).

T1 sequence (P08922 28-2347): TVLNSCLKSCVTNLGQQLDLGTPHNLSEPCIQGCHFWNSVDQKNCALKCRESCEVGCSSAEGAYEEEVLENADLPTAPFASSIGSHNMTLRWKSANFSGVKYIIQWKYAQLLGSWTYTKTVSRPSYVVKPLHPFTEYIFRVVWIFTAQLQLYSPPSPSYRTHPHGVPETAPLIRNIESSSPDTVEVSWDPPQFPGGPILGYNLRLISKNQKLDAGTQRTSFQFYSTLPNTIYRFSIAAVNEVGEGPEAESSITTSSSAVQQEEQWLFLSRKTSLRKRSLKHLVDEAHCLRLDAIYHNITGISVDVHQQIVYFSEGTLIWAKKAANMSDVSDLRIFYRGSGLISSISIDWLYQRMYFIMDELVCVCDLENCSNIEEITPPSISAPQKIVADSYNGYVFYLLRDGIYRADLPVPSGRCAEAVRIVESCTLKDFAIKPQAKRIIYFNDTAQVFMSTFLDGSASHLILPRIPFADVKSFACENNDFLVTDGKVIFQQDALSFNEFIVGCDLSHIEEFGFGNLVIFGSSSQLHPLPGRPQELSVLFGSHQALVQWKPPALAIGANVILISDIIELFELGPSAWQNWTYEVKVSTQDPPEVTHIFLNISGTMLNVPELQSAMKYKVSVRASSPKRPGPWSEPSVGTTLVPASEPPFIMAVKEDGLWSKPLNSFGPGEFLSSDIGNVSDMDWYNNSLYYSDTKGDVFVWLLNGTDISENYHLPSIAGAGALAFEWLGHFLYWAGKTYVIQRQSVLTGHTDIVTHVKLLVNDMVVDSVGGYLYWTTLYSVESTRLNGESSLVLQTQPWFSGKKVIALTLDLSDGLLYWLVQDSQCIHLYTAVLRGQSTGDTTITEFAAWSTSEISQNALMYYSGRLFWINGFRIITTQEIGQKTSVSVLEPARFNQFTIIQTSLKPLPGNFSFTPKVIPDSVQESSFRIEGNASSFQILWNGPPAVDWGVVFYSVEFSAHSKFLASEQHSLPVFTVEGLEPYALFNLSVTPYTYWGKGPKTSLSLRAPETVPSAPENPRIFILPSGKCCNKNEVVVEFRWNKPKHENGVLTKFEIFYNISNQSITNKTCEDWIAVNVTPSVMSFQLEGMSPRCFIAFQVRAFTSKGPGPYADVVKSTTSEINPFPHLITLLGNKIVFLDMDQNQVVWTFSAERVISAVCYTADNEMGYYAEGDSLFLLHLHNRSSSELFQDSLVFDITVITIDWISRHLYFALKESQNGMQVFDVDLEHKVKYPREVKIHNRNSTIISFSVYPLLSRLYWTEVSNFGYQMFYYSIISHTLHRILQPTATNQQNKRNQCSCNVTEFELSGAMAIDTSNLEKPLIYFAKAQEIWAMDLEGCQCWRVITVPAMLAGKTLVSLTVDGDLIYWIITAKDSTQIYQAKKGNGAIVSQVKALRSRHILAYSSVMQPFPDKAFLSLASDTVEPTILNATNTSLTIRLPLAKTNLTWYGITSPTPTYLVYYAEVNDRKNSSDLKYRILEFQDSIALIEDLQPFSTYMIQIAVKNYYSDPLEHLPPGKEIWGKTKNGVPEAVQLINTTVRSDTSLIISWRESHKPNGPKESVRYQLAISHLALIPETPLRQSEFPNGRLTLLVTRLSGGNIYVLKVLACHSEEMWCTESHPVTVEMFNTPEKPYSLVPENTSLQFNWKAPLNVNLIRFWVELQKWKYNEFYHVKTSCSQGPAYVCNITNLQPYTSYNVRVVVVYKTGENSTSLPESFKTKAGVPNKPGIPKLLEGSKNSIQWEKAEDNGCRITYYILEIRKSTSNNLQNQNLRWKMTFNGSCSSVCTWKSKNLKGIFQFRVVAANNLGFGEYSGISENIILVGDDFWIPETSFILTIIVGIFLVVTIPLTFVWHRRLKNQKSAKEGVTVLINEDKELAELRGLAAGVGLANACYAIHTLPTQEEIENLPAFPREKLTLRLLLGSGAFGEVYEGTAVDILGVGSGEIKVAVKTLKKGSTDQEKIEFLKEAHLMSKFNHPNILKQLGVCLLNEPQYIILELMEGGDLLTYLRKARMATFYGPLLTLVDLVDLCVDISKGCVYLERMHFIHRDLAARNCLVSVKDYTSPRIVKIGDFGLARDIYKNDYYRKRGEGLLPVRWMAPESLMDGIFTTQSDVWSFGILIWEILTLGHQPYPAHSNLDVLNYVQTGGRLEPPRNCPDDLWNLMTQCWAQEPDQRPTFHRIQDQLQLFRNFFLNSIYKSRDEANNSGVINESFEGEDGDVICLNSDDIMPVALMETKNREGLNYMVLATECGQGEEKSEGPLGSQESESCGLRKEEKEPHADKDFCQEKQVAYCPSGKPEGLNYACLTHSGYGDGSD

Q: For `CC(C)c1ccc(COc2ccc(-c3c(-c4ccncc4)nn4c3NC(CO)C4)cc2)cc1` (stereo not shown) [Co. 11], which IC50 is on record?
A: 2.51e-07 M

Q: Which IC50 does the source give for `CC(C)c1ccc(COc2ccc(-c3c(-c4ccncc4)nn4c3N(CCCN)CC4)cc2)cc1` [Co. 12] here?
A: 5.01e-07 M

Q: With `CC(C)c1ccc(COc2ccc(-c3c(-c4ccncn4)nn4c3NCC4)cc2)cc1` [Co. 14] as the compound, how does the IC50 read?
A: 3.98e-07 M

Q: For `CC(C)c1ccc(COc2ccc(-c3c(-c4ccncn4)nn4c3NCC4)c(F)c2)cc1` [Co. 15], which IC50 is on record?
A: 2.51e-07 M

Q: For `CC(C)c1ccc(COc2ccc(-c3c(-c4ccncc4)nn4c3NCCC4)c(F)c2)cc1` [Co. 18], which IC50 is on record?
A: 2e-08 M

Q: With `CC(C)c1ccc(COc2ccc(-c3c(-c4ccncc4)nn4c3N(C)CCC4)cc2)cc1` [Co. 19] as the compound, how does the IC50 read?
A: 1e-07 M

Q: For `CC(C)c1ccc(COc2ccc(-c3c(-c4ccncc4)nn4c3N(CCO)C(=O)CC4)cc2)cc1` [Co. 20], which IC50 is on record?
A: 3.16e-07 M

Target: Ba/F3 cells containing Ros1 wild-type protein (Homo sapiens, UniProt P08922, cells depend on it, form not given)
Experiment: Ba/F3-Ros1 cell proliferation assay, wild-type Ros1, without IL-3
Assay type: cell-based, murine
Conditions: -log IC50 (M); wild-type Ros1, no IL-3, 24 h, Alamar Blue
Procedure: (§1) This assay was carried out with Ba/F3 cells containing three different versions of Ros1: the wild-type protein, protein with a mutation at the gatekeeper residue (L2026M), and protein with a mutation identified in a tumor from a patient that became resistant to crizotinib (Xalkori®) treatment (G2032R). Compounds were solubilized in 100% DMSO (dimethyl sulfoxide) and sprayed into polystyrene, tissue culture treated 384-well plates. A 50 μl volume of cell culture medium (phenol red free RPMI-1640, 10% FBS (fetal bovine serum), 2 mM L-Glutamine) containing 20000 Ba/F3-Ros1 cells was added to each well and the plates were placed in an incubator at 37° C. and 5% CO2. After 24 hours, 10 μl of Alamar Blue solution (0.5 mM K3Fe(CN)6, 0.5 mM K4Fe(CN)6, 0.15 mM Resazurin and 100 mM Phosphate Buffer) was added to the wells, incubated for 4 hours at 37° C. and 5% CO2 before RFU's (Relative Fluorescence Units) (ex. 540 nm., em. 590 nm.) were measured in a fluorescence plate reader.

Sequence of Ba/F3 cells containing Ros1 wild-type protein (P08922 whole entry, change not shown): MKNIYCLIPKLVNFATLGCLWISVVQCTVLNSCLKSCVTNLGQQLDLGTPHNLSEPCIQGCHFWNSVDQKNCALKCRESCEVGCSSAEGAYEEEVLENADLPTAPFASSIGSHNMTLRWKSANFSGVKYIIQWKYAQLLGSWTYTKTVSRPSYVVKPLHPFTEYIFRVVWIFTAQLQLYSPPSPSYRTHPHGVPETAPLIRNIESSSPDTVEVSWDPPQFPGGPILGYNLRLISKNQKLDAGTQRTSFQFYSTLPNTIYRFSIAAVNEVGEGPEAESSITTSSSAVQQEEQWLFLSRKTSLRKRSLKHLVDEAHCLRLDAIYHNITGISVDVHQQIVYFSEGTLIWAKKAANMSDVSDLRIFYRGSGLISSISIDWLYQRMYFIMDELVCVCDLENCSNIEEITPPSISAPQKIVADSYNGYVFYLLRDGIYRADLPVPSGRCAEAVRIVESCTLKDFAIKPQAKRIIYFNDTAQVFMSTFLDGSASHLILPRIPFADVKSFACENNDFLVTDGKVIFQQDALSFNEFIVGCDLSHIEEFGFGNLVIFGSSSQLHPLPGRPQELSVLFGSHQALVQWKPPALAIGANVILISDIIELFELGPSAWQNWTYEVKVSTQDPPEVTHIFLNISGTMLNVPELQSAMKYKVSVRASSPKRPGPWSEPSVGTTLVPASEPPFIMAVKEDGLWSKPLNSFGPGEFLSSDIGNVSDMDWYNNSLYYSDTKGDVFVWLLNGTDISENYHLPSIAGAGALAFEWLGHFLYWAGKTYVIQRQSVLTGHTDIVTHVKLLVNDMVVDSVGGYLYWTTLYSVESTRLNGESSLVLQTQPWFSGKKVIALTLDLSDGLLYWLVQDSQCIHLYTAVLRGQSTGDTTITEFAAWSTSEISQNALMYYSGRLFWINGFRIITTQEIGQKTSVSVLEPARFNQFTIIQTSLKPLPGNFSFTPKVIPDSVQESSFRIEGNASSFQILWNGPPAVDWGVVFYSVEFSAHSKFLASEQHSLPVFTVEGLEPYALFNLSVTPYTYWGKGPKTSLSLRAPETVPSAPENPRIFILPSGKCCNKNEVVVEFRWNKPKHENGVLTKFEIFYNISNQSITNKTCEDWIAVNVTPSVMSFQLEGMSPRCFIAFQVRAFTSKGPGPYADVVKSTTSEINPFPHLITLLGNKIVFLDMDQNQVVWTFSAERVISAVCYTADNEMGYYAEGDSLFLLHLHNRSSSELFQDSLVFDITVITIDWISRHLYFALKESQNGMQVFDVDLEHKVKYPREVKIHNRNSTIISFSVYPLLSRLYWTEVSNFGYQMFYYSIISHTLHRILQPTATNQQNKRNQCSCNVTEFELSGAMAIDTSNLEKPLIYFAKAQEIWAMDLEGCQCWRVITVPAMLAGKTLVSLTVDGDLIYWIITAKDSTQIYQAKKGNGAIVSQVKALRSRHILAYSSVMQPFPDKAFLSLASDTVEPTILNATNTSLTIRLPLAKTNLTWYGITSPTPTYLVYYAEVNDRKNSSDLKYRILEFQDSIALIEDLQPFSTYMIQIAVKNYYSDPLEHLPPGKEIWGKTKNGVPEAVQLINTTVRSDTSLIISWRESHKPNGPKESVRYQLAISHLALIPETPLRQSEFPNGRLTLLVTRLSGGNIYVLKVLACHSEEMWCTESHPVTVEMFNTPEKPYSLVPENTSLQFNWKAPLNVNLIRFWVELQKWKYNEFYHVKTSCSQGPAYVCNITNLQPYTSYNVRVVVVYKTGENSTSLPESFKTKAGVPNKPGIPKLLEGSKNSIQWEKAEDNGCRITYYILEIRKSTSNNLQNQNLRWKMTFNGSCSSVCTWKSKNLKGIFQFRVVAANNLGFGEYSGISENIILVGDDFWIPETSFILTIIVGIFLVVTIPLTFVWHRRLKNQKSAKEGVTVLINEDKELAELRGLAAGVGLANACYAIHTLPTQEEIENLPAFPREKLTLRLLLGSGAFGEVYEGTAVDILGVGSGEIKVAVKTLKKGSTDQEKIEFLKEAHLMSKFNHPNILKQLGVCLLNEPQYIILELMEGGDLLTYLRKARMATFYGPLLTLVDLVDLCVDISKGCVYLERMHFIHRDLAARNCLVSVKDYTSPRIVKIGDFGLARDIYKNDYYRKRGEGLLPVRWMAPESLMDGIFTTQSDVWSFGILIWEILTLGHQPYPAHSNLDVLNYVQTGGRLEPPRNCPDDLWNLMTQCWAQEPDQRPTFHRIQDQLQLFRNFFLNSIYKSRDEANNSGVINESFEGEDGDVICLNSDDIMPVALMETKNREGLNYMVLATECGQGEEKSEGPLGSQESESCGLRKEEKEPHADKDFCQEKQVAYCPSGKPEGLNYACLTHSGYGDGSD

Q: For `CC(C)c1ccc(COc2ccc(-c3c(-c4ccncc4)nn4c3NC(CO)C4)cc2)cc1` (stereo not shown) [Co. 11], which “BaF3-ROS1 − IL3 pIC50” value is on record?
A: 7.0

Q: Which “BaF3-ROS1 − IL3 pIC50” value does the source give for `CC(C)c1ccc(COc2ccc(-c3c(-c4ccncc4)nn4c3N(CCCN)CC4)cc2)cc1` [Co. 12] here?
A: 6.3

Q: With `CC(C)c1ccc(COc2ccc(-c3c(-c4ccncn4)nn4c3NCC4)cc2)cc1` [Co. 14] as the compound, how does the “BaF3-ROS1 − IL3 pIC50” value read?
A: 6.5

Q: With `CC(C)c1ccc(COc2ccc(-c3c(-c4ccncn4)nn4c3NCC4)c(F)c2)cc1` [Co. 15] as the compound, how does the “BaF3-ROS1 − IL3 pIC50” value read?
A: 6.8

Q: Which “BaF3-ROS1 − IL3 pIC50” value does the source give for `CC(C)c1ccc(COc2ccc(-c3c(-c4ccncc4)nn4c3NCCC4)c(F)c2)cc1` [Co. 18] here?
A: 7.6

Q: With `CC(C)c1ccc(COc2ccc(-c3c(-c4ccncc4)nn4c3N(C)CCC4)cc2)cc1` [Co. 19] as the compound, how does the “BaF3-ROS1 − IL3 pIC50” value read?
A: 6.7

Q: For `CC(C)c1ccc(COc2ccc(-c3c(-c4ccncc4)nn4c3N(CCO)C(=O)CC4)cc2)cc1` [Co. 20], which “BaF3-ROS1 − IL3 pIC50” value is on record?
A: 6.8

Test system: Ba/F3 cells containing Ros1 wild-type protein + IL-3
Experiment: Ba/F3-Ros1 cell proliferation counter-screen, wild-type Ros1 in the presence of murine IL-3
Assay type: cell-based
Conditions: Mus musculus, BaF3, 24 h; -log IC50 (M); wild-type Ros1, 10 ng/ml murine IL-3 (counter-screen); read-out: BaF3-ROS1 + IL3 pIC50 (converted)
Procedure: as §1
As a counter-screen the same experiment was performed for the wild-type protein in the presence of 10 ng/ml murine IL-3.

Q: With `CC(C)c1ccc(COc2ccc(-c3c(-c4ccncc4)nn4c3NC(CO)C4)cc2)cc1` (stereo not shown) [Co. 11] as the compound, how does the CC50 read?
A: 2.51e-06 M

Q: For `CC(C)c1ccc(COc2ccc(-c3c(-c4ccncc4)nn4c3N(CCCN)CC4)cc2)cc1` [Co. 12], which CC50 is on record?
A: ~4.47e-06 M

Q: Which CC50 does the source give for `CC(C)c1ccc(COc2ccc(-c3c(-c4ccncn4)nn4c3NCC4)cc2)cc1` [Co. 14] here?
A: ~7.41e-06 M

Q: Which CC50 does the source give for `CC(C)c1ccc(COc2ccc(-c3c(-c4ccncn4)nn4c3NCC4)c(F)c2)cc1` [Co. 15] here?
A: > 1e-05 M

Q: Which CC50 does the source give for `CC(C)c1ccc(COc2ccc(-c3c(-c4ccncc4)nn4c3NCCC4)c(F)c2)cc1` [Co. 18] here?
A: > 1e-05 M

Q: With `CC(C)c1ccc(COc2ccc(-c3c(-c4ccncc4)nn4c3N(C)CCC4)cc2)cc1` [Co. 19] as the compound, how does the CC50 read?
A: > 1e-05 M

Q: With `CC(C)c1ccc(COc2ccc(-c3c(-c4ccncc4)nn4c3N(CCO)C(=O)CC4)cc2)cc1` [Co. 20] as the compound, how does the CC50 read?
A: > 1e-05 M

Target: Ba/F3 cells containing Ros1 L2026M (Homo sapiens, UniProt P08922, L2026M, cells depend on it, form not given)
Experiment: Ba/F3-Ros1 cell proliferation assay, L2026M gatekeeper mutant
Assay type: cell-based, murine
Conditions: -log IC50 (M), no IL-3
Procedure: as §1

Sequence of Ba/F3 cells containing Ros1 L2026M (P08922 whole entry L2026M, form open): as the sequence (P08922 whole entry, change not shown) above, with L2026M counted along it

Q: With `CC(C)c1ccc(COc2ccc(-c3c(-c4ccncc4)nn4c3NC(CO)C4)cc2)cc1` (stereo not shown) [Co. 11] as the compound, how does the “Ba/F3 Ros1 L2026M (-IL-3) pIC50” value read?
A: 6.8

Q: For `CC(C)c1ccc(COc2ccc(-c3c(-c4ccncc4)nn4c3N(CCCN)CC4)cc2)cc1` [Co. 12], which “Ba/F3 Ros1 L2026M (-IL-3) pIC50” value is on record?
A: 6

Q: With `CC(C)c1ccc(COc2ccc(-c3c(-c4ccncn4)nn4c3NCC4)cc2)cc1` [Co. 14] as the compound, how does the “Ba/F3 Ros1 L2026M (-IL-3) pIC50” value read?
A: 6.6

Q: With `CC(C)c1ccc(COc2ccc(-c3c(-c4ccncn4)nn4c3NCC4)c(F)c2)cc1` [Co. 15] as the compound, how does the “Ba/F3 Ros1 L2026M (-IL-3) pIC50” value read?
A: <5

Q: For `CC(C)c1ccc(COc2ccc(-c3c(-c4ccncc4)nn4c3NCCC4)c(F)c2)cc1` [Co. 18], which “Ba/F3 Ros1 L2026M (-IL-3) pIC50” value is on record?
A: 7.8

Q: For `CC(C)c1ccc(COc2ccc(-c3c(-c4ccncc4)nn4c3N(C)CCC4)cc2)cc1` [Co. 19], which “Ba/F3 Ros1 L2026M (-IL-3) pIC50” value is on record?
A: 6.4

Test system: HCC78 non-small cell lung cancer cells
Experiment: HCC78 cell proliferation assay
Assay type: cell-based
Conditions: Homo sapiens, HCC78, 96 h; -log EC50 (M); 4 days, MTT; read-out: HCC-78 PROL pEC50 (converted)
Procedure: Approximately 1000 HCC78 non-small cell lung cancer cells in 180 μl of cell culture medium (RPMI-1640, 10% FBS, 2 mM L-Glutamine, 10 mM Hepes, 1 mM sodium pyruvate, 4.5 g/L glucose, 1.5 g/L sodium bicarbonate, 25 μg/ml Gentamycin) were seeded in each well of a 96-well polystyrene, tissue-culture treated plate and incubated at 37° C. and 5% CO2. After 24 hours, compounds were diluted in cell culture medium from which 20 μl was added to the wells containing cells and incubated for 4 days at 37° C. and 5% CO2. A 5 mg/ml solution of the tetrazolium dye MTT was prepared in PBS (phosphate-buffered saline) and 25 μl was added to each well. After 2 hours the medium was removed and replaced by 125 μL of 4/1 DMSO/glycine buffer (0.1M glycine, 0.1M NaCl, pH 10.5) before absorbance was determined at 538 nm.

Q: With `CC(C)c1ccc(COc2ccc(-c3c(-c4ccncc4)nn4c3NC(CO)C4)cc2)cc1` (stereo not shown) [Co. 11] as the compound, how does the EC50 read?
A: 7.94e-07 M

Q: Which EC50 does the source give for `CC(C)c1ccc(COc2ccc(-c3c(-c4ccncc4)nn4c3N(CCCN)CC4)cc2)cc1` [Co. 12] here?
A: 1.58e-06 M

Q: For `CC(C)c1ccc(COc2ccc(-c3c(-c4ccncn4)nn4c3NCC4)cc2)cc1` [Co. 14], which EC50 is on record?
A: 1e-06 M

Q: For `CC(C)c1ccc(COc2ccc(-c3c(-c4ccncn4)nn4c3NCC4)c(F)c2)cc1` [Co. 15], which EC50 is on record?
A: 6.31e-07 M

Q: With `CC(C)c1ccc(COc2ccc(-c3c(-c4ccncc4)nn4c3NCCC4)c(F)c2)cc1` [Co. 18] as the compound, how does the EC50 read?
A: 3.98e-07 M

Q: With `CC(C)c1ccc(COc2ccc(-c3c(-c4ccncc4)nn4c3N(C)CCC4)cc2)cc1` [Co. 19] as the compound, how does the EC50 read?
A: 7.94e-07 M

Test system: not given
Experiment: not given
Conditions: not given

Q: Which melting point does the source give for `CC(C)c1ccc(COc2ccc(-c3c(-c4ccncn4)nn4c3NCC4)cc2)cc1` [Co. 14] here?
A: 109 °C

Q: Which melting point does the source give for `CC(C)c1ccc(COc2ccc(-c3c(-c4ccncc4)nn4c3NCCC4)c(F)c2)cc1` [Co. 18] here?
A: 188 °C

Q: Which melting point does the source give for `CC(C)c1ccc(COc2ccc(-c3c(-c4ccncc4)nn4c3N(C)CCC4)cc2)cc1` [Co. 19] here?
A: 120 °C

Q: For `CC(C)c1ccc(COc2ccc(-c3c(-c4ccncc4)nn4c3N(CCO)C(=O)CC4)cc2)cc1` [Co. 20], which melting point is on record?
A: 205 °C
